From PubChem BioAssay AID292 (DTP/NCI, 2004)
“And” between values parts separate entries of the source, which are not always exact repeats. Equal entries are not always repeated. Inconclusive results and toxic doses are left out.

Test system: B6C3F1 mice, ip Sarcoma M5076, median survival T/C
Assay: NCI In Vivo Anticancer Drug Screen. Data for tumor model Sarcoma M5076 (intraperitoneal) in B6C3F1 mice
Conditions: endpoint: median survival time, higher = longer survival
Summary of the method: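 Survival measured in treated (T) and vehicle control (C) mice with transplantable tumour; result given as T divided by C.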

[1] = dose: 18.75 mg/kg/injection, schedule: Q04DX004 (ip), vehicle: saline with Tween-80
[2] = dose: 37.5 mg/kg/injection, schedule: Q04DX004 (ip), vehicle: saline with Tween-80
[3] = dose: 75.0 mg/kg/injection, schedule: Q04DX004 (ip), vehicle: saline with Tween-80
[4] = dose: 150.0 mg/kg/injection, schedule: Q04DX004 (ip), vehicle: saline with Tween-80
[5] = dose: 300.0 mg/kg/injection, schedule: Q04DX004 (ip), vehicle: saline with Tween-80
[6] = dose: 50.0 mg/kg/injection, schedule: Q04DX004 (ip), vehicle: Klucel (hydroxypropylcellulose) (HPC)
[7] = dose: 12.5 mg/kg/injection, schedule: Q04DX004 (ip), vehicle: Klucel (hydroxypropylcellulose) (HPC)
[8] = dose: 25.0 mg/kg/injection, schedule: Q04DX004 (ip), vehicle: Klucel (hydroxypropylcellulose) (HPC)
[9] = dose: 100.0 mg/kg/injection, schedule: Q04DX004 (ip), vehicle: Klucel (hydroxypropylcellulose) (HPC)
[10] = dose: 200.0 mg/kg/injection, schedule: Q04DX004 (ip), vehicle: Klucel (hydroxypropylcellulose) (HPC)
[11] = dose: 400.0 mg/kg/injection, schedule: Q04DX004 (ip), vehicle: Klucel (hydroxypropylcellulose) (HPC)
[12] = dose: 12.5 mg/kg/injection, schedule: Q04DX004 (ip), vehicle: saline with Tween-80
[13] = dose: 25.0 mg/kg/injection, schedule: Q04DX004 (ip), vehicle: saline with Tween-80
[14] = dose: 50.0 mg/kg/injection, schedule: Q04DX004 (ip), vehicle: saline with Tween-80
[15] = dose: 100.0 mg/kg/injection, schedule: Q04DX004 (ip), vehicle: saline with Tween-80

`N#Cc1c(-c2ccc(F)cc2)c(-c2ccc(F)cc2)nn(CCO)c1=O` was tested, and the T/C (dose: 12.5 mg/kg/injection, schedule: Q04DX004 (ip), vehicle: distilled water + Tween-80) was 96 % of control and 106 % of control, the T/C (dose: 25.0 mg/kg/injection, schedule: Q04DX004 (ip), vehicle: distilled water + Tween-80) was 101 % of control and 102 % of control and the T/C (dose: 50.0 mg/kg/injection, schedule: Q04DX004 (ip), vehicle: distilled water + Tween-80) was 106 % of control and 111 % of control. For the same compound, the T/C (dose: 72.0 mg/kg/injection, schedule: Q04DX004 (ip), vehicle: distilled water + Tween-80) was 103 % of control, the T/C (dose: 100.0 mg/kg/injection, schedule: Q04DX004 (ip), vehicle: distilled water + Tween-80) was 120 % of control and 124 % of control and the T/C (dose: 120.0 mg/kg/injection, schedule: Q04DX004 (ip), vehicle: distilled water + Tween-80) was 115 % of control. The T/C (dose: 200.0 mg/kg/injection, schedule: Q04DX004 (ip), vehicle: distilled water + Tween-80) was 123 % of control, the T/C (dose: 333.0 mg/kg/injection, schedule: Q04DX004 (ip), vehicle: distilled water + Tween-80) was 150 % of control and the T/C (dose: 555.0 mg/kg/injection, schedule: Q04DX004 (ip), vehicle: distilled water + Tween-80) was 153 % of control.

For `c1ccc2c(c1)-c1ccccc1C1NC21` (stereo unspecified), the T/C [1] was 93 % of control, the T/C [2] was 98 % of control and the T/C [3] was 94 % of control. For the same compound, the T/C [4] was 96 % of control and the T/C [5] was 102 % of control.

For `CN1COc2c(n(C)c(=O)[nH]c2=O)C1`, the T/C (dose: 50.0 mg/kg/injection, schedule: Q04DX004 (ip), vehicle: suspension in saline) was 106 % of control, the T/C (dose: 100.0 mg/kg/injection, schedule: Q04DX004 (ip), vehicle: suspension in saline) was 106 % of control and the T/C (dose: 200.0 mg/kg/injection, schedule: Q04DX004 (ip), vehicle: suspension in saline) was 105 % of control. For the same compound, the T/C (dose: 400.0 mg/kg/injection, schedule: Q04DX004 (ip), vehicle: suspension in saline) was 106 % of control and the T/C (dose: 800.0 mg/kg/injection, schedule: Q04DX004 (ip), vehicle: suspension in saline) was 114 % of control.

For `CCCCCCCCCCCC1NC(=S)NC(=O)C1C#N` (stereo unspecified), the T/C [6] was 91 % of control.

With `COC1=CC(=O)C(OC)=C(OC)C1=O` the T/C [1] was 95 % of control, the T/C [2] was 95 % of control and the T/C [3] was 99 % of control. For the same compound, the T/C [4] was 97 % of control and the T/C [5] was 93 % of control.

`Cc1nc2ccccc2c(N)c1-c1cc(C)c2c(C)nc3ccccc3c2n1` was tested, and the T/C (dose: 6.25 mg/kg/injection, schedule: Q04DX004 (ip), vehicle: Klucel (hydroxypropylcellulose) (HPC)) was 97 % of control, the T/C [7] was 91 % of control and the T/C [8] was 90 % of control and 94 % of control and 101 % of control. The T/C [6] was 92 % of control and 98 % of control, the T/C [9] was 96 % of control and 100 % of control and the T/C [10] was 99 % of control. For the same compound, the T/C [11] was 106 % of control.

In the case of `CSC1=NCc2c(sc3c2CCCC3)N1`, the T/C (dose: 37.5 mg/kg/injection, schedule: Q04DX004 (ip), vehicle: Klucel (hydroxypropylcellulose) (HPC)) is reported as 98 % of control, the T/C (dose: 75.0 mg/kg/injection, schedule: Q04DX004 (ip), vehicle: Klucel (hydroxypropylcellulose) (HPC)) is reported as 103 % of control and the T/C (dose: 150.0 mg/kg/injection, schedule: Q04DX004 (ip), vehicle: Klucel (hydroxypropylcellulose) (HPC)) is reported as 99 % of control. For the same compound, the T/C (dose: 300.0 mg/kg/injection, schedule: Q04DX004 (ip), vehicle: Klucel (hydroxypropylcellulose) (HPC)) was 102 % of control.

For `C/C(=N\NC(=S)N1CCN(c2ccccn2)CC1)c1ccccn1`, the T/C [7] was 98 % of control, the T/C [8] was 103 % of control and the T/C [6] was 93 % of control.

In the case of `NC(Cn1ccc(=O)c(O)c1)C(=O)O` (stereo unspecified), the T/C (dose: 75.0 mg/kg/injection, schedule: Q04DX004 (ip), vehicle: saline) is reported as 100 % of control, the T/C (dose: 150.0 mg/kg/injection, schedule: Q04DX004 (ip), vehicle: saline) is reported as 109 % of control and the T/C (dose: 300.0 mg/kg/injection, schedule: Q04DX004 (ip), vehicle: saline) is reported as 103 % of control. The T/C (dose: 600.0 mg/kg/injection, schedule: Q04DX004 (ip), vehicle: saline) was 118 % of control and the T/C (dose: 1200.0 mg/kg/injection, schedule: Q04DX004 (ip), vehicle: saline) was 113 % of control.

With `CC1(C)C2CCC(C2)C1/C=C1/SC(=S)NC1=O` (stereo unspecified) the T/C [8] was 95 % of control, the T/C [6] was 98 % of control and the T/C [9] was 90 % of control. The T/C [10] was 91 % of control and the T/C [11] was 87 % of control.

For `Oc1cc(O)cc(/C=C/c2ccc(O)c(O)c2)c1`, the T/C (dose: 12.5 mg/kg/injection, schedule: Q04DX004 (ip), vehicle: DMSO) was 97 % of control, the T/C (dose: 25.0 mg/kg/injection, schedule: Q04DX004 (ip), vehicle: DMSO) was 99 % of control and the T/C (dose: 50.0 mg/kg/injection, schedule: Q04DX004 (ip), vehicle: DMSO) was 89 % of control. The T/C (dose: 100.0 mg/kg/injection, schedule: Q04DX004 (ip), vehicle: DMSO) was 91 % of control.

In the case of `COc1ccc(Cl)c2c1[nH]c1nc3nc4cc(Cl)ccc4n3nc12`, the T/C [3] is reported as 91 % of control and the T/C [4] is reported as 90 % of control.

In the case of `O=NN(CCCl)C(=O)NCCCl`, the T/C (dose: 1.5 mg/kg/injection, schedule: Q04DX004 (ip), vehicle: saline + alcohol) is reported as 116 % of control, the T/C (dose: 6.0 mg/kg/injection, schedule: Q04DX004 (ip), vehicle: saline + alcohol) is reported as 163 % of control and 164 % of control and the T/C (dose: 12.0 mg/kg/injection, schedule: Q04DX004 (ip), vehicle: saline + alcohol) is reported as 224 % of control and 292 % of control. The T/C (dose: 24.0 mg/kg/injection, schedule: Q04DX004 (ip), vehicle: saline + alcohol) was 248 % of control and 292 % of control and the T/C (dose: 48.0 mg/kg/injection, schedule: Q04DX004 (ip), vehicle: saline + alcohol) was 244 % of control.

In the case of `[Na+]`, the T/C (dose: 50.0 mg/kg/injection, schedule: Q04DX004 (ip), vehicle: water) is reported as 94 % of control, the T/C (dose: 100.0 mg/kg/injection, schedule: Q04DX004 (ip), vehicle: water) is reported as 97 % of control and the T/C (dose: 200.0 mg/kg/injection, schedule: Q04DX004 (ip), vehicle: water) is reported as 101 % of control. The T/C (dose: 400.0 mg/kg/injection, schedule: Q04DX004 (ip), vehicle: water) was 88 % of control and the T/C (dose: 800.0 mg/kg/injection, schedule: Q04DX004 (ip), vehicle: water) was 98 % of control.

`CCOC(=O)/N=[N+](\[O-])c1ccccc1` was tested, and the T/C (dose: 3.13 mg/kg/injection, schedule: Q04DX004 (ip), vehicle: saline with Tween-80) was 105 % of control, the T/C (dose: 6.25 mg/kg/injection, schedule: Q04DX004 (ip), vehicle: saline with Tween-80) was 97 % of control and the T/C [12] was 104 % of control. The T/C [13] was 97 % of control and the T/C [14] was 101 % of control.

`CC(C)[C@](O)(C(=O)OCC1=CC[N+]2([O-])CC[C@@H](O)[C@@H]12)[C@H](C)O` (stereo partly specified) was tested, and the T/C (dose: 75.0 mg/kg/injection, schedule: Q04DX005 (ip), vehicle: saline) was 111 % of control, the T/C (dose: 112.5 mg/kg/injection, schedule: Q04DX004 (ip), vehicle: water) was 122 % of control and the T/C (dose: 150.0 mg/kg/injection, schedule: Q04DX005 (ip), vehicle: saline) was 108 % of control. For the same compound, the T/C (dose: 225.0 mg/kg/injection, schedule: Q04DX004 (ip), vehicle: water) was 150 % of control, the T/C (dose: 300.0 mg/kg/injection, schedule: Q04DX005 (ip), vehicle: saline) was 153 % of control and the T/C (dose: 450.0 mg/kg/injection, schedule: Q04DX004 (ip), vehicle: water) was 199 % of control. For the same compound, the T/C (dose: 600.0 mg/kg/injection, schedule: Q04DX005 (ip), vehicle: saline) was 230 % of control, the T/C (dose: 900.0 mg/kg/injection, schedule: Q04DX004 (ip), vehicle: water) was 208 % of control and the T/C (dose: 1200.0 mg/kg/injection, schedule: Q04DX005 (ip), vehicle: saline) was 230 % of control. The T/C (dose: 1800.0 mg/kg/injection, schedule: Q04DX004 (ip), vehicle: water) was 291 % of control.

`Cc1cc2cc3cc(C)c(N)cc3nc2cc1N` was tested, and the T/C [13] was 110 % of control, the T/C [14] was 117 % of control and the T/C [15] was 113 % of control.

In the case of `COc1cccc(-n2cc[n+](C)c2/C=N/O)c1`, the T/C [12] is reported as 108 % of control, the T/C [13] is reported as 101 % of control and the T/C [14] is reported as 108 % of control. For the same compound, the T/C [15] was 100 % of control.

For `CS(=O)(=O)OCCCNCCCOS(C)(=O)=O`, the T/C (dose: 10.0 mg/kg/injection, schedule: Q04DX005 (ip), vehicle: saline) was 150 % of control, the T/C (dose: 20.0 mg/kg/injection, schedule: Q04DX005 (ip), vehicle: saline) was 185 % of control and the T/C (dose: 40.0 mg/kg/injection, schedule: Q04DX005 (ip), vehicle: saline) was 319 % of control. The T/C (dose: 80.0 mg/kg/injection, schedule: Q04DX005 (ip), vehicle: saline) was 319 % of control.
